In US20170165237A1 (DRUGGABILITY TECHNOLOGIES IP HOLDCO LIMITED, priority 2014, published 2017):

What was measured:
[1] = cited from earlier work
angiogenesis pathways = details: topical 1%; cited from earlier work
[2] = in vivo; cited from earlier work
human plasma proteins [3] = details: cited from earlier work
human plasma proteins [4] = target: human plasma proteins (Homo sapiens, UniProt P02768); details: serum albumin; cited from earlier work
[5] = in vivo; cited from earlier work; remark: listed apart in the source
[6] = subconjunctival, 5 subjects; cited from earlier work
in vitro = details: PAMPA, pH 7
Protocol: The receiver compartment was phosphate buffered saline (pH 7.0) supplemented with 1% sodium dodecyl sulfate. The assay was performed at room temperature; incubation time was 1-24 hours. The concentration in the receiver compartment was determined by UV-VIS spectrophotometry (Thermo Scientific Genesys S10).

[7] = topical, psoriasis; cited from earlier work
[8] = cited from earlier work; remark: listed apart in the source
P-gp = P-gp (Homo sapiens, UniProt P08183); details: cited from earlier work
Sequence of P-gp (P08183 whole entry): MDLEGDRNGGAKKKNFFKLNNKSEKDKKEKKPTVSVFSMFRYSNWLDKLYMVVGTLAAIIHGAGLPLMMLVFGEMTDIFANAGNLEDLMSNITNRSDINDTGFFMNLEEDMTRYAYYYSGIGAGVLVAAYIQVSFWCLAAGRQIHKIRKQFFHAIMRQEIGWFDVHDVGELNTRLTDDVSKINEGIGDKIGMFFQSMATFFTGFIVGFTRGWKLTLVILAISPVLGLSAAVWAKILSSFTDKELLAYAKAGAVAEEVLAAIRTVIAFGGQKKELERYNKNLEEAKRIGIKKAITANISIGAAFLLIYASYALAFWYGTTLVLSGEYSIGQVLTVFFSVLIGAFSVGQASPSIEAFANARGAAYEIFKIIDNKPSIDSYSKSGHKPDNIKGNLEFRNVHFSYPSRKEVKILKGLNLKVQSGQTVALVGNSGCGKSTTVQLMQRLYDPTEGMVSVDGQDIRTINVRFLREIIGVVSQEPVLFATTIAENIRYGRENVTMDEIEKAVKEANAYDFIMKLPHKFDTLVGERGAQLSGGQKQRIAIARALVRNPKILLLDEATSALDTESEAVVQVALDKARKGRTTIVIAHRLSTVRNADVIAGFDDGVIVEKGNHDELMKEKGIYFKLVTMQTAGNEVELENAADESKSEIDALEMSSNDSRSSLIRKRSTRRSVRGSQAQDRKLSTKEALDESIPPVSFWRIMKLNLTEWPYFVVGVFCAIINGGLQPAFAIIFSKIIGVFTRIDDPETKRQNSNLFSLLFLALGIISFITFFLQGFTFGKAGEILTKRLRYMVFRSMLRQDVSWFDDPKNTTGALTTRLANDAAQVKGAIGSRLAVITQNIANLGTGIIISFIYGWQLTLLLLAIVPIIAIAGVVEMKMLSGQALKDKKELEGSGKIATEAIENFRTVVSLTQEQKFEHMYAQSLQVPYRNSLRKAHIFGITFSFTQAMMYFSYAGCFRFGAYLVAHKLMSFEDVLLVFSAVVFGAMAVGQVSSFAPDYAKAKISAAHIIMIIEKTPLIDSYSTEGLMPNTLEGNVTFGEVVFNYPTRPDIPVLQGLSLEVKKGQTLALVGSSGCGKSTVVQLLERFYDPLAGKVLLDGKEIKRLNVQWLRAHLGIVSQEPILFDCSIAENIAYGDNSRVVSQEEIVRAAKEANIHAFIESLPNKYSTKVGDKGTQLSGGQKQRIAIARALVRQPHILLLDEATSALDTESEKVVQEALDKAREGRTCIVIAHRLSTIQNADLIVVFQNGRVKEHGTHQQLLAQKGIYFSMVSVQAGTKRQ

CYP3A4 = CYP3A4 (Homo sapiens, UniProt P08684); details: cited from earlier work
Sequence of CYP3A4 (P08684 whole entry): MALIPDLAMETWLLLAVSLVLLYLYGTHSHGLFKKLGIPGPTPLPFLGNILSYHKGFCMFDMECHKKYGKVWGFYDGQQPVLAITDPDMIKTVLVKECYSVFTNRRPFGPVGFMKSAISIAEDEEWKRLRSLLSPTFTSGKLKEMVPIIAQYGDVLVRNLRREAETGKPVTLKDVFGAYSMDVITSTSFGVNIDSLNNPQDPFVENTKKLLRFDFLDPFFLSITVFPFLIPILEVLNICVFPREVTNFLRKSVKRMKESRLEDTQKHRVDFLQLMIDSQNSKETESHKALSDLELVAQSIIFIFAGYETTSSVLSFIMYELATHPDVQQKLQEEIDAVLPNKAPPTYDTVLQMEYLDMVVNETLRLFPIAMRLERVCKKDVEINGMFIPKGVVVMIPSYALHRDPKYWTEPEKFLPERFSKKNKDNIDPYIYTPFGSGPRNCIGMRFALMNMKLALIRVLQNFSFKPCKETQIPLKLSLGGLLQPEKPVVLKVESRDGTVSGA

[9] = single dose [14C] Sirolimus oral solution, healthy volunteers

Sequence of human plasma proteins (Homo sapiens, UniProt P02768) (P02768 25-609): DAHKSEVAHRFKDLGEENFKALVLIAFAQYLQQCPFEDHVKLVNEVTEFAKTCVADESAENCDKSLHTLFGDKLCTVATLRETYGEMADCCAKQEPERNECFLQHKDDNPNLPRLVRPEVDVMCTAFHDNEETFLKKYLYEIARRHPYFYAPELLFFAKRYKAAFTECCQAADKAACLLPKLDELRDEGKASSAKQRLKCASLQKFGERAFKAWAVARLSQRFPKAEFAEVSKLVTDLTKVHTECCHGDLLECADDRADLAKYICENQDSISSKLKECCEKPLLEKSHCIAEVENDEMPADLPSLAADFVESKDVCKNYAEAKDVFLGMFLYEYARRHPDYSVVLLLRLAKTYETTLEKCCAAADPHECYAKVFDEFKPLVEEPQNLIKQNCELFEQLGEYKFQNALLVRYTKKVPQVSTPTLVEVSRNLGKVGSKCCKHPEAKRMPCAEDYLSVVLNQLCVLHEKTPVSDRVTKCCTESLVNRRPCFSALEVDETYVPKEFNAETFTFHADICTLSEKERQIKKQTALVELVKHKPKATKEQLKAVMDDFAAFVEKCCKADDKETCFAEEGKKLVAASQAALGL

CO[C@H]1C[C@@H]2CC[C@@H](C)[C@@](O)(O2)C(=O)C(=O)N2CCCC[C@H]2C(=O)O[C@H]([C@H](C)C[C@@H]2CC[C@@H](O)[C@H](OC)C2)CC(=O)[C@H](C)/C=C(\C)[C@@H](O)[C@@H](OC)C(=O)[C@H](C)C[C@H](C)/C=C/C=C/C=C/1C [Sirolimus, (3 S,6R,7E,9R,10R, 12R, 14S, 15E, 17E, 19E,21 S,23 S,26R,27R,34aS)9,10,12,13,14,21,22,23,24, 25,26,27,32,33,34, 34a-hexadecahydro-9,27-dihydroxy-3-[(1R)-2[(1 S,3R,4R)-4-hydroxy-3-methoxycyclohexyl]-1-methylethyl]-10,21-dimethoxy6,8,12,14,20,26-hexamethyl-23,27-epoxy-3H-pyrido[2,1-c][1,4]oxaazacyclohentriacontine1,5,11,28,29 (4H,6H,31H)-pentone]
increase of mean total exposure (AUC) by high-fat meal compared with fasting ([1]; healthy subjects, high-fat meal (861.8 kcal, 54.9% kcal from fat)): 23 to 35%
mean±SD terminal elimination half-life (t1/2) ([1]; multiple dosing, stable renal transplant patients): about 62±16 hours
contribution to immunosuppressive activity in human whole blood ([1]; parent vs metabolites, human whole blood): more than 90%
radioactivity excreted in urine [1, 9]: 2.2%
radioactivity recovered from the feces [1, 9]: 91%
angiogenesis pathways; regeneration and revascularization of photocoagulated blood vessels (angiogenesis pathways): can suppress
allograft survival [2]: prolongs
bound to human plasma proteins (human plasma proteins [3]): approximately 92%
bound mainly to serum albumin (human plasma proteins [4]): 97%
immune-mediated events in autoimmune disease models [5]: suppresses
tolerability [6]: well tolerated
Papp (in vitro): < 1 ×10⁻⁶ cm/s
clinical score [7]: significant reduction
plaque thickness and erythema [7]: did not show significant improvement
systemic absorption after topical application ([8]; detection >1.0 ng/mL): No detectable systemic absorption
effect on facial angiofibromas ([8]; topical): causes regression
substrate for P-gp (P-gp): substrate
substrate for CYP3A4 (CYP3A4): substrate
